Test results published in patent publication US11384062B2 (CombiPhos Catalysts, Inc., priority 2017, dated 2022).

Assays:
U251 = settings: 10 μM single dose; CNS Cancer U251
Text: (§1) The test compounds were screened for anticancer activity at the Development Therapeutic Program (DTP), National Cancer Institute (NCI), USA, against a full NCI 59 cell line panel (six cell lines of leukemia, nine cell lines of lung cancer, seven cell lines of colon cancer, six cell lines of CNS cancer, nine cell lines of melanoma, seven cell lines of ovarian cancer, seven cell lines of renal cancer, two cell lines of prostate cancer, and six cell lines of breast cancer) representing nine human systems in total as leukemia, melanoma, and cancers of the lungs, colon, brain, breast, ovary, kidney, and prostate, according to the applied protocol. A primary in vitro one dose anticancer assay was performed at a single dose (10 μM) against the full NCI 59 cell line panel. The one dose data was reported as a mean graph of the percent growth of treated cells. The number reported for the single dose assay was growth relative to the no drug control and relative to the initial number of cells at time 0. […] A value of −40 means 40% lethality. A value of −100 means all cells are dead.

HS 578T = settings: 10 μM single dose; Breast Cancer HS 578T
Text: as §1

M14 = settings: 10 μM single dose; Melanoma M14
Text: as §1

PC-3 = settings: 10 μM single dose; Prostate Cancer PC-3
Text: as §1

HCC-2998 = settings: 10 μM single dose; Colon Cancer HCC-2998
Text: as §1

UACC-257 = settings: 10 μM single dose; Melanoma UACC-257
Text: as §1

HCT-116 = settings: 10 μM single dose; Colon Cancer HCT-116
Text: as §1

LOX IMVI = settings: 10 μM single dose; Melanoma LOX IMVI
Text: as §1

SF-268 = settings: 10 μM single dose; CNS Cancer SF-268
Text: as §1

NCI-H322M = settings: 10 μM single dose; Non-Small Cell Lung Cancer NCI-H322M
Text: as §1

SK-MEL-2 = settings: 10 μM single dose; Melanoma SK-MEL-2
Text: as §1

HOP-92 = settings: 10 μM single dose; Non-Small Cell Lung Cancer HOP-92
Text: as §1

OVCAR-4 = settings: 10 μM single dose; Ovarian Cancer OVCAR-4
Text: as §1

CCRF-CEM = settings: 10 μM single dose; Leukemia CCRF-CEM
Text: as §1

SK-OV-3 = settings: 10 μM single dose; Ovarian Cancer SK-OV-3
Text: as §1

MDA-MB-468 = settings: 10 μM single dose; Breast Cancer MDA-MB-468
Text: as §1

MALME-3M = settings: 10 μM single dose; Melanoma MALME-3M
Text: as §1

SK-MEL-28 = settings: 10 μM single dose; Melanoma SK-MEL-28
Text: as §1

OVCAR-5 = settings: 10 μM single dose; Ovarian Cancer OVCAR-5
Text: as §1

T-47D = settings: 10 μM single dose; Breast Cancer T-47D
Text: as §1

RXF 393 = settings: 10 μM single dose; Renal Cancer RXF 393
Text: as §1

OVCAR-3 = settings: 10 μM single dose; Ovarian Cancer OVCAR-3
Text: as §1

NCI-H23 = settings: 10 μM single dose; Non-Small Cell Lung Cancer NCI-H23
Text: as §1

MDA-MB-231/ATCC = settings: 10 μM single dose; Breast Cancer MDA-MB-231/ATCC
Text: as §1

KM12 = settings: 10 μM single dose; Colon Cancer KM12
Text: as §1

UO-31 = settings: 10 μM single dose; Renal Cancer UO-31
Text: as §1

COLO 205 = settings: 10 μM single dose; Colon Cancer COLO 205
Text: as §1

MDA-MB-435 = settings: 10 μM single dose; Melanoma MDA-MB-435
Text: as §1

ACHN = settings: 10 μM single dose; Renal Cancer ACHN
Text: as §1

SNB-19 = settings: 10 μM single dose; CNS Cancer SNB-19
Text: as §1

K-562 = settings: 10 μM single dose; Leukemia K-562
Text: as §1

MOLT-4 = settings: 10 μM single dose; Leukemia MOLT-4
Text: as §1

SF-295 = settings: 10 μM single dose; CNS Cancer SF-295
Text: as §1

SF-539 = settings: 10 μM single dose; CNS Cancer SF-539
Text: as §1

SK-MEL-5 = settings: 10 μM single dose; Melanoma SK-MEL-5
Text: as §1

A549/ATCC = settings: 10 μM single dose; Non-Small Cell Lung Cancer A549/ATCC
Text: as §1

`[2H]c1c([2H])c(C2([2H])C([2H])NC([2H])C([2H])C2[2H])c([2H])c([2H])c1-n1cc2cccc(C(N)=O)c2n1` (stereo not drawn) [Example 4, 2-(4-(piperidin-3-yl-2,3,4,5,6-d5)phenyl-2,3,5,6-d4)-2H-indazole-7-carboxamide] was tested, and the “Growth Percentage” value (U251) was 83.63%, the “Growth Percentage” value (HS 578T) was 86.01% and the “Growth Percentage” value (M14) was 84.68%. The “Growth Percentage” value (PC-3) was 85.40%, the “Growth Percentage” value (HCC-2998) was 83.97% and the “Growth Percentage” value (UACC-257) was 107.99%. For the same compound, the “Growth Percentage” value (HCT-116) was 77.22%, the “Growth Percentage” value (LOX IMVI) was 70.64% and the “Growth Percentage” value (SF-268) was 89.52%. The “Growth Percentage” value (NCI-H322M) was 84.01%, the “Growth Percentage” value (SK-MEL-2) was 101.94% and the “Growth Percentage” value (HOP-92) was 90.59%. For the same compound, the “Growth Percentage” value (OVCAR-4) was 98.64%, the “Growth Percentage” value (CCRF-CEM) was 89.50% and the “Growth Percentage” value (SK-OV-3) was 90.49%. For the same compound, the “Growth Percentage” value (MDA-MB-468) was 86.59%, the “Growth Percentage” value (MALME-3M) was 79.53% and the “Growth Percentage” value (SK-MEL-28) was 98.37%. For the same compound, the “Growth Percentage” value (OVCAR-5) was 89.23%, the “Growth Percentage” value (T-47D) was 98.04% and the “Growth Percentage” value (RXF 393) was 102.74%. For the same compound, the “Growth Percentage” value (OVCAR-3) was 107.53%, the “Growth Percentage” value (NCI-H23) was 84.26% and the “Growth Percentage” value (MDA-MB-231/ATCC) was 80.47%. The “Growth Percentage” value (KM12) was 87.65%, the “Growth Percentage” value (UO-31) was 75.43% and the “Growth Percentage” value (COLO 205) was 82.07%. The “Growth Percentage” value (MDA-MB-435) was 92.97%, the “Growth Percentage” value (ACHN) was 72.83% and the “Growth Percentage” value (SNB-19) was 88.53%. The “Growth Percentage” value (K-562) was 77.76%, the “Growth Percentage” value (MOLT-4) was 78.10% and the “Growth Percentage” value (SF-295) was 85.63%. For the same compound, the “Growth Percentage” value (SF-539) was 82.30%, the “Growth Percentage” value (SK-MEL-5) was 91.65% and the “Growth Percentage” value (A549/ATCC) was 67.08%.

With `[2H]c1c([2H])c(-n2nc3c(C(N)=O)cccc3c2[2H])c([2H])c([2H])c1C1CCCNC1` (racemic) [Example 11, 2-(4-(piperidin-3-yl)phenyl-2,3,5,6-d4)-2H-indazole-3-d-7-carboxamide] the “Growth Percentage” value (U251) was 92.89%, the “Growth Percentage” value (HS 578T) was 81.82% and the “Growth Percentage” value (M14) was 90.64%. The “Growth Percentage” value (PC-3) was 68.67%, the “Growth Percentage” value (HCC-2998) was 80.10% and the “Growth Percentage” value (UACC-257) was 102.12%. The “Growth Percentage” value (HCT-116) was 81.62%, the “Growth Percentage” value (LOX IMVI) was 71.49% and the “Growth Percentage” value (SF-268) was 82.89%. The “Growth Percentage” value (NCI-H322M) was 85.94%, the “Growth Percentage” value (SK-MEL-2) was 108.51% and the “Growth Percentage” value (HOP-92) was 79.03%. The “Growth Percentage” value (OVCAR-4) was 103.47%, the “Growth Percentage” value (CCRF-CEM) was 68.34% and the “Growth Percentage” value (SK-OV-3) was 94.12%. For the same compound, the “Growth Percentage” value (MDA-MB-468) was 87.13%, the “Growth Percentage” value (MALME-3M) was 92.14% and the “Growth Percentage” value (SK-MEL-28) was 101.33%. The “Growth Percentage” value (OVCAR-5) was 89.69%, the “Growth Percentage” value (T-47D) was 90.97% and the “Growth Percentage” value (RXF 393) was 107.27%. The “Growth Percentage” value (OVCAR-3) was 97.70%, the “Growth Percentage” value (NCI-H23) was 82.01% and the “Growth Percentage” value (MDA-MB-231/ATCC) was 76.99%. For the same compound, the “Growth Percentage” value (KM12) was 83.99%, the “Growth Percentage” value (UO-31) was 79.89% and the “Growth Percentage” value (COLO 205) was 79.11%. The “Growth Percentage” value (MDA-MB-435) was 91.99%, the “Growth Percentage” value (ACHN) was 72.39% and the “Growth Percentage” value (SNB-19) was 85.34%. The “Growth Percentage” value (K-562) was 87.94%, the “Growth Percentage” value (MOLT-4) was 71.06% and the “Growth Percentage” value (SF-295) was 90.94%. For the same compound, the “Growth Percentage” value (SF-539) was 77.48%, the “Growth Percentage” value (SK-MEL-5) was 91.06% and the “Growth Percentage” value (A549/ATCC) was 70.16%.

In the case of `[2H]C1([2H])NC([2H])([2H])C([2H])(c2ccc(-n3cc4cccc(C(N)=O)c4n3)cc2)C([2H])([2H])C1([2H])[2H]` (racemic) [Example 3, 2-(4-(piperidin-3-yl-2,2,3,4,4,5,5,6,6-d9)phenyl)-2H-indazole-7-carboxamide], the “Growth Percentage” value (U251) is reported as 85.78%, the “Growth Percentage” value (HS 578T) is reported as 86.68% and the “Growth Percentage” value (M14) is reported as 98.03%. The “Growth Percentage” value (PC-3) was 80.86%, the “Growth Percentage” value (HCC-2998) was 88.49% and the “Growth Percentage” value (UACC-257) was 97.56%. For the same compound, the “Growth Percentage” value (HCT-116) was 83.66%, the “Growth Percentage” value (LOX IMVI) was 76.95% and the “Growth Percentage” value (SF-268) was 88.94%. The “Growth Percentage” value (NCI-H322M) was 98.96%, the “Growth Percentage” value (SK-MEL-2) was 117.90% and the “Growth Percentage” value (HOP-92) was 98.72%. For the same compound, the “Growth Percentage” value (OVCAR-4) was 106.31%, the “Growth Percentage” value (CCRF-CEM) was 87.92% and the “Growth Percentage” value (SK-OV-3) was 96.60%. The “Growth Percentage” value (MDA-MB-468) was 109.78%, the “Growth Percentage” value (MALME-3M) was 91.23% and the “Growth Percentage” value (SK-MEL-28) was 107.36%. The “Growth Percentage” value (OVCAR-5) was 100.56%, the “Growth Percentage” value (T-47D) was 98.94% and the “Growth Percentage” value (RXF 393) was 111.56%. The “Growth Percentage” value (OVCAR-3) was 103.07%, the “Growth Percentage” value (NCI-H23) was 91.99% and the “Growth Percentage” value (MDA-MB-231/ATCC) was 83.62%. The “Growth Percentage” value (KM12) was 99.34%, the “Growth Percentage” value (UO-31) was 80.19% and the “Growth Percentage” value (COLO 205) was 94.82%. The “Growth Percentage” value (MDA-MB-435) was 98.88%, the “Growth Percentage” value (ACHN) was 77.21% and the “Growth Percentage” value (SNB-19) was 91.61%. For the same compound, the “Growth Percentage” value (K-562) was 89.73%, the “Growth Percentage” value (MOLT-4) was 86.53% and the “Growth Percentage” value (SF-295) was 96.74%. The “Growth Percentage” value (SF-539) was 96.82%, the “Growth Percentage” value (SK-MEL-5) was 93.38% and the “Growth Percentage” value (A549/ATCC) was 67.74%.
